Series [1] relates to activated leukocytes. The note with it: topical application; cited from earlier work.
Series [2] concerns naïve animals. The series can be described thus: Baseline nociceptive thresholds in naïve animals. Particulars: ARN19702 30 mg-kg^−1 IP, ARN16186 10 mg-kg^−1 IP. The series is classed as in vivo, mouse.
In series [3] the test system is formalin-injected mice. As to the kind of experiment: Formalin-induced chronic pain-like state (CPLS): persistent hypersensitivity to heat and mechanical stimuli. The series is classed as in vivo, mouse. Particulars: for alleviation of the hypersensitive state (contralateral hyperalgesia): mouse, in vivo; for pain chronification (contralateral hyperalgesia): GW7647 10 mg-kg^−1 IP, post-procedural day 2-4; for conversion to CPLS (contralateral hyperalgesia, PFD14): maximally effective dosages on PFD2-4: gabapentin 50 mg-kg^−1 IP, morphine 10 mg-kg^−1 subcutaneous, ketamine 4 mg-kg^−1 IP, ketoprofen 100 mg-kg^−1 IP, WT mice, formalin.

The subject of series [4] is formalin-injected mice. The series can be described thus: Formalin test: acute nocifensive behavior. The note with it: pretreatment; ARN16186 10 mg-kg^−1 IP, ARN19702 30 mg-kg^−1 IP; wild-type mice, 1% formalin.
Series [5] concerns formalin-injected mice. The series can be described thus: Formalin-induced paw edema. The series is classed as in vivo, mouse. Particulars: pretreatment; ARN16186 10 mg-kg^−1 IP, ARN19702 30 mg-kg^−1 IP; wild-type mice, 1% formalin. The protocol: Paw edema was measured with a digital caliper (Fisher Scientific, USA) and is expressed as the difference (A paw thickness, mm) between ipsilateral and contralateral paws.

Series [6] relates to mice and rats. The note with it: cited from earlier work; for sensory abnormalities caused by carrageenan injection, ultraviolet B-radiation or CCI: mice and rats.
For series [7], the target named is T1, PPAR-α (Homo sapiens, UniProt Q07869).
T1 sequence (Q07869 1-468): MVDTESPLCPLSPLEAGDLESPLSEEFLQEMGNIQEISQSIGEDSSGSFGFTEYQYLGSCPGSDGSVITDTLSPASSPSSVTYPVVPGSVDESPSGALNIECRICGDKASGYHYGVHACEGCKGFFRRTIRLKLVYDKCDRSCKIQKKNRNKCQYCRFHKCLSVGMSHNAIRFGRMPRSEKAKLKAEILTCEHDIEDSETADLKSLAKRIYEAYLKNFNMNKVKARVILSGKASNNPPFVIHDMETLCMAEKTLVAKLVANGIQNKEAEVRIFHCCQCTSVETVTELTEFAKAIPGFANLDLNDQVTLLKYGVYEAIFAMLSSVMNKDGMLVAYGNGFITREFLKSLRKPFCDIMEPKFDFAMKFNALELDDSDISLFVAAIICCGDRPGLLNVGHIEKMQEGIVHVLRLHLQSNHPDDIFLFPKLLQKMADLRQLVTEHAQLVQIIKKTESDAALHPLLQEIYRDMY
The note with it: activation of PPAR-α by exogenous PEA; cited from earlier work.

The subject of series [8] is naïve mice. The series can be described thus: Capsaicin-evoked nocifensive behavior. The series is classed as in vivo, mouse.
Method: Capsaicin: Capsaicin or its vehicle was injected into the plantar surface of the left hind paw (20 μl) or left forepaw (10 μl), i.e. contralaterally to the formalin injection site. Nocifensive behavior was videorecorded for 10 min and evaluated under blinded conditions.
Series [9] deals with spinal-cord transcription. The series can be described thus: RNA sequencing and metabolomic analysis of L4-L6 spinal cord. The series is classed as in vivo, mouse. The note with it: GW7647, post-injury. The protocol: RNA sequencing and bioinformatics analysis: We extracted total RNA with the RNeasy Mini Kit (Qiagen). Samples with RNA integrity number ≥8.5 were kept for library construction. cDNA synthesis, amplification, library construction, and sequencing were performed at Novogene (Bejing, China) using the Illumina NovaSeq platform with paired-end 150 bp (PE 150) sequencing strategy. Downstream analysis was performed using a combination of programs including STAR, HTseq, Cufflink and Novogene's wrapped scripts. Alignments were parsed using the STAR program and differential expressions were determined using DESeq2/edgeR. Gene Ontology (GO) and Kyoto Encyclopedia of Genes and Genomes (KEGG) enrichment were implemented using the ClusterProfiler.
Metabolomic analysis: Metabolomics analyses were performed at the West Coast Metabolomics Center of the University of California Davis, as described^55. Briefly, frozen lumbar spinal cord (L4-L6) fragments (˜5 mg) were homogenized in Eppendorf tubes (2 ml) for 2 min using metal spheres ([…] diameter) in a MM300 mill (Retsch, Germany). A mixture of isopropanol/acetonitrile/water (3/3/2, vol) was added to the grounded tissue (1 ml per 20 mg), stirred for 10 s and shaken at 4° C. for 5 min. […]

Series [10] has as its system fibrosarcoma-bearing mice. Particulars: cited from earlier work.
The test system of series [11] is DRG neurons co-cultured with fibrosarcoma cells. Particulars: cited from earlier work.
For series [12], the system named is PEA levels in diseased tissues of CCI and tumor-bearing mice. The note with it: cited from earlier work.
The conditions of series [13]: in vivo; cited from earlier work.
Series [14] has as its system rodents. Particulars: male (but not female) rodents; cited from earlier work.
In series [15] the test system is male rat model of type-1 diabetes. The note with it: cited from earlier work.
Series [16] relates to macrophages. The note with it: cited from earlier work.

“Also recorded” adds a separate entry of the source.

Turning to `O=C(CCc1ccccc1)N[C@H]1COC1=O` [(S)-OOPP], in series [1], the “PEA levels in activated leukocytes” value was “reinstates normal” and the “inflammatory responses induced by carrageenan or endotoxin” value is “blunts”.

`CCCCc1ccc(OC2C[C@H]3CC[C@@H](C2)N3S(=O)(=O)c2c(C)n[nH]c2C)cc1` (some centres unmarked) [ARN16186]: in [2], the baseline nociceptive thresholds entry is given as “Neither compound affected”. Besides, the “protective effects of ARN19702 against CPLS (contralateral hyperalgesia)” value in series [3] (ARN16186 10 mg-kg^−1 IP once daily PFD1 to PFD3, male mice) is “mimicked”. In [3] (pretreatment of wild-type mice, ARN19702 30 mg-kg^−1 IP, ARN16186 10 mg-kg^−1 IP), the “NAAA-null phenotype (weakened nocifensive response, no inflammation or persistent hypersensitivity after formalin)” value is recorded as “recapitulated”. Besides, the “persistent contralateral hyperalgesia (PFD14)” value in [3] (pretreatment, ARN16186 10 mg-kg^−1 IP, ARN19702 30 mg-kg^−1 IP, wild-type mice, 1% formalin) is “prevents”. Besides, the “nocifensive response to formalin” value in series [4] is “prevents”. The “paw edema (PFD14)” value in series [5] was “prevents”.

For the molecule `CCCCCCCCCCCCCCCC(=O)NCCO` [PEA, palmitoylethanolamide], the “sensory abnormalities caused by carrageenan injection, ultraviolet B-radiation or CCI” value in [6] was “mimicked”. Moreover, in [7], the inflammation result is recorded as “attenuates”, the mitochondrial respiration result was “stimulates” and the pain entry was “attenuates”. The CPLS result in series [3] (on PFD2-4, PEA 30 mg-kg^−1 subcutaneous, fenofibrate 100 mg-kg^−1 IP) is “blocked”.

For the molecule `NC(=O)c1cccc(-c2cccc(OC(=O)NC3CCCCC3)c2)c1` [URB597], the “emergence of formalin-induced CPLS (contralateral hyperalgesia and allodynia)” value in [3] (URB597 3 mg-kg^−1 IP once daily from PFD3 to PFD5, male mice) was “prevents the emergence”.

Regarding `CN1CC[C@]23c4c5ccc(O)c4O[C@H]2[C@@H](O)C=C[C@H]3[C@H]1C5` [morphine], the “alleviation of the hypersensitive state (contralateral hyperalgesia)” value in series [3] was “only temporarily alleviated”.

Turning to `COc1cc(CNC(=O)CCCC/C=C/C(C)C)ccc1O` [capsaicin], in series [8] (forepaw CPS injection, formalin-naïve mice), the “median effective dose (ED50), nocifensive response” value was about 0.1 µg. In addition, the “half-maximal dose, nocifensive response” value in series [8] (intraplantar hind paw injection) came to 0.1 µg.

For the molecule `CC(C)(Sc1ccc(CCN(CCCCC2CCCCC2)C(=O)NC2CCCCC2)cc1)C(=O)O` [GW7647], the “pain chronification (contralateral hyperalgesia)” value in series [3] (NAAA-overexpressing mice treated with 0.1% formalin) and in [3] (wild-type mice treated with 1% formalin) was “stopped” throughout. In series [9], the “injury-associated changes in spinal-cord transcription” value is “prevented”.

In the case of `NCC1(CC(=O)O)CCCCC1` [gabapentin], in series [3], the “conversion to CPLS (contralateral hyperalgesia, PFD14)” value (shortened to “conversion to CPLS”) is on record as “not mimicked; also recorded: failed to stop; also recorded: do not prevent; also recorded: fail to prevent” and the “alleviation of the hypersensitive state (contralateral hyperalgesia)” value is “only temporarily alleviated”.

As to `CNC1(c2ccccc2Cl)CCCCC1=O` (centres unmarked) [ketamine], the “conversion to CPLS” value in [3] is listed as “not mimicked; also recorded: failed to stop; also recorded: do not prevent; also recorded: fail to prevent”.

On to `C[C@@H]1OC(=O)[C@@H]1NC(=O)OCCCCCc1ccccc1` [ARN077], for which the mechanical hypersensitivity result in series [10] is on record as “reduces”. In addition, the calcium signaling entry in [11] is listed as “rapidly normalizes”. Further, the “sensory abnormalities caused by carrageenan injection, ultraviolet B-radiation or CCI” value in series [6] was “corrects”. Besides, in [3] (post-injury intrathecal infusion, 30 ng, 5 μL, at PFD2 and PFD4, assessed PFD14), the “persistent hypersensitivity (CPLS) elicited by formalin” value is reported as “stopped”. Also, in series [12], the “PEA levels in diseased tissues” value is reported as “restores baseline”. Also, the “crossing of the blood-brain barrier” value in series [13] is reported as “cannot cross; also recorded: does not cross”.

Turning to `CN(C)C(=N)N=C(N)N` [metformin], the neuropathic pain entry in series [14] is on record as “prevents”. Also, the “therapeutic efficacy in painful peripheral neuropathy” value in [15] is listed as “may exhibit therapeutic efficacy”. Moreover, the “macrophage phenotype shift toward glycolysis / trained immunity” value in [16] is listed as “stopped”.

Turning to `CCC(=O)NC[C@H](Cc1ccc(OCCc2nc(-c3ccccc3)oc2C)cc1)N/C(C)=C\C(=O)c1ccc(C(F)(F)F)cc1` [GW6471], the “effects of ARN077 on sensory abnormalities in the presence of the PPAR-α antagonist” value in series [6] (rats) is “prevented”. Moreover, in series [3] (wild-type animals pretreated with GW6471 4 mg-kg^−1 IP, 15 min prior to ARN19702), the “loss of the ARN19702 effect on transition to CPLS” value is reported as “replicated”.

In the case of `CC(C(=O)O)c1cccc(C(=O)c2ccccc2)c1` (centres unmarked) [ketoprofen], the “conversion to CPLS” value in [3] was “not mimicked; also recorded: failed to stop; also recorded: do not prevent; also recorded: fail to prevent”.

Source of the values: US20240252486A1, “ALGOSTATIC AGENTS FOR PREVENTING TRANSITION FROM ACUTE TO CHRONIC PAIN” (The Regents of the University of California, priority 2021, published 2024).
